Experimental data as given in patent publication US10280229B2, “Linkers and their application towards ADC” (MEDSHINE DISCOVERY INC., priority 2014, dated 2019).

target: bovine cathepsin B (Bos taurus, UniProt P07688); assay: Rate of hydrolysis of fluorescent dipeptide substrates incubated with bovine cathepsin B (release of 7-AMC); format: biochemical; settings: incubation with bovine cathepsin B
Description: A convenient method was developed to identify suitable dipeptide units for the use in drug-linker intermediates. Cbz-protected dipeptides incorporated a fluorescent tag (7-amino-4-methylcouramin, 7-AMC) via a para-aminobenzyl carbonyl fragment were prepared by standard peptide chemistry as shown in Scheme 1. These dipeptide substrates were then incubated with bovine cathepsin B under a similar condition as described by Dubowchik (Biorg. Med. Chem. Lett. 1998, 8, 3341-3346). Rate of hydrolysis by bovine cathepsin B was measured by the release of 7-AMC (Table 1). Novel dipeptides with hydrolysis rates slower than the substrate A were rejected. The three dipeptide units in FS-9, FS-10 and FS-11 were selected as additional dipeptide units for drug-linker intermediate preparation.

Row | SMILES | Rate of Hydrolysis
1 | Cc1cc(=O)oc2cc(NC(=O)OCc3ccc(NC(=O)[C@H](CCCNC(N)=O)NC(=O)[C@@H](NC(=O)OCc4ccccc4)C(C)C)cc3)ccc12 [reference compound] | 2.67 nmmol/min/mg
2 | Cc1cc(=O)oc2cc(NC(=O)OCc3ccc(NC(=O)[C@H](CCCNC(N)=O)NC(=O)[C@@H](NC(=O)OCc4ccccc4)C4CCSCC4)cc3)ccc12 | 0 nmmol/min/mg
3 | CCOC(=O)N1CCC([C@H](NC(=O)OCc2ccccc2)C(=O)N[C@@H](CCCNC(N)=O)C(=O)Nc2ccc(COC(=O)Nc3ccc4c(C)cc(=O)oc4c3)cc2)CC1 | 0.63 nmmol/min/mg
4 | Cc1cc(=O)oc2cc(NC(=O)OCc3ccc(NC(=O)C(CC4CCC(CN)CC4)NC(=O)[C@@H](NC(=O)OCc4ccccc4)C(C)C)cc3)ccc12 (stereo partly drawn) | 20.9 nmmol/min/mg
5 | Cc1cc(=O)oc2cc(NC(=O)OCc3ccc(NC(=O)[C@H](CCCNC(N)=O)NC(=O)[C@@H](NC(=O)OCc4ccccc4)C4CCOCC4)cc3)ccc12 | 0.84 nmmol/min/mg
6 | Cc1cc(=O)oc2cc(NC(=O)OCc3ccc(NC(=O)[C@H](CCCNC(N)=O)NC(=O)[C@@H](NC(=O)OCc4ccccc4)C4CC[S+]([O-])CC4)cc3)ccc12 (stereo partly drawn) | 0.55 nmmol/min/mg
7 | Cc1cc(=O)oc2cc(NC(=O)OCc3ccc(NC(=O)[C@H](CCCNC(N)=O)NC(=O)[C@@H](NC(=O)OCc4ccccc4)C4CCN(C)CC4)cc3)ccc12 | 0.59 nmmol/min/mg
8 | Cc1cc(=O)oc2cc(NC(=O)OCc3ccc(NC(=O)[C@H](CCCNC(N)=O)NC(=O)[C@@H](NC(=O)OCc4ccccc4)C4CCNCC4)cc3)ccc12 | 0.84 nmmol/min/mg
9 | Cc1cc(=O)oc2cc(NC(=O)OCc3ccc(NC(=O)[C@H](CCCNC(N)=O)NC(=O)[C@@H](NC(=O)OCc4ccccc4)C4CCS(=O)(=O)CC4)cc3)ccc12 | 0 nmmol/min/mg
10 | Cc1cc(=O)oc2cc(NC(=O)OCc3ccc(NC(=O)[C@H](CCCN4CCCCC4)NC(=O)[C@@H](NC(=O)OCc4ccccc4)C(C)C)cc3)ccc12 | 25.1 nmmol/min/mg
11 | Cc1cc(=O)oc2cc(NC(=O)OCc3ccc(NC(=O)[C@H](CCCN4CCOCC4)NC(=O)[C@@H](NC(=O)OCc4ccccc4)C(C)C)cc3)ccc12 | 27.2 nmmol/min/mg
12 | Cc1cc(=O)oc2cc(NC(=O)OCc3ccc(NC(=O)[C@H](CCCNC(N)=O)NC(=O)[C@@H](NC(=O)OCc4ccccc4)C4CCCNC4)cc3)ccc12 (stereo partly drawn) | 0 nmmol/min/mg
